# Laboratory results as given in PubChem BioAssay AID2060499 (Molecular Pharmacology Branch, DTP, NCI, 2025).
# pIC50: −log10 of the molar value.
# Tested on: 777334-354-R2-J4-PDC tumor spheroids with HUVEC/MSC, viability
# Test: Anticancer human tumor 777334-354-R2-J4-PDC patient-derived pancreatic adenocarcinoma cell line growth inhibition [GQUAD]
# Conditions: for pIC50: curve of first compound; for viability, T/C: stronger effect = lower value
# Summary of the method: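 Multi-cell-type spheroids of tumor cells with HUVEC and mesenchymal stem cells, treated with drug combinations. Concentrations descend in half-log steps from near clinical Cmax, or from 10 microM where Cmax is unknown; viability read-out.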
# [1] = second compound 0.0316 µM, first compound 0.0316 µM
# [2] = second compound 0.0316 µM, first compound 0.1 µM
# [3] = second compound 0.0316 µM, first compound 0.316 µM
# [4] = second compound 0.0316 µM, first compound 1 µM
# [5] = second compound 0.0316 µM, first compound 3.16 µM
# [6] = second compound 0.0316 µM, first compound 10 µM
# [7] = second compound 0.1 µM, first compound 0.0316 µM
# [8] = second compound 0.1 µM, first compound 0.1 µM
# [9] = second compound 0.1 µM, first compound 0.316 µM
# [10] = second compound 0.1 µM, first compound 1 µM
# [11] = second compound 0.1 µM, first compound 3.16 µM
# [12] = second compound 0.1 µM, first compound 10 µM
# [13] = second compound 0.316 µM, first compound 0.0316 µM
# [14] = second compound 0.316 µM, first compound 0.1 µM
# [15] = second compound 0.316 µM, first compound 0.316 µM
# [16] = second compound 0.316 µM, first compound 1 µM
# [17] = second compound 0.316 µM, first compound 3.16 µM
# [18] = second compound 0.316 µM, first compound 10 µM
# [19] = second compound 1 µM, first compound 0.0316 µM
# [20] = second compound 1 µM, first compound 0.1 µM
# [21] = second compound 1 µM, first compound 0.316 µM
# [22] = second compound 1 µM, first compound 1 µM
# [23] = second compound 1 µM, first compound 3.16 µM
# [24] = second compound 1 µM, first compound 10 µM
# [25] = second compound 3.16 µM, first compound 0.0316 µM
# [26] = second compound 3.16 µM, first compound 0.1 µM
# [27] = second compound 3.16 µM, first compound 0.316 µM
# [28] = second compound 3.16 µM, first compound 1 µM
# [29] = second compound 3.16 µM, first compound 3.16 µM
# [30] = second compound 3.16 µM, first compound 10 µM
# [31] = second compound 10 µM, first compound 0.0316 µM
# [32] = second compound 10 µM, first compound 0.1 µM
# [33] = second compound 10 µM, first compound 0.316 µM
# [34] = second compound 10 µM, first compound 1 µM
# [35] = second compound 10 µM, first compound 3.16 µM
# [36] = second compound 10 µM, first compound 10 µM
# 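Further: spheroids exposed to compounds for 7 days before readout.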
smiles,measurement,setting,value
C#Cc1c(F)ccc2cc(O)cc(-c3ncc4c(N5CC6CCC(C5)N6)nc(OCC56CCCN5CC(F)C6)nc4c3F)c12 (stereo unspecified) + Cc1[nH]c2ccc(F)cc2c1-c1nc2c3cccnc3c3ncccc3c2[nH]1,pIC50,second compound 0.0316 µM,7.09
same,pIC50,second compound 0.1 µM,7.32
same,pIC50,second compound 0.316 µM,> 7.50
same,pIC50,second compound 1 µM,> 7.50
same,pIC50,second compound 3.16 µM,> 7.50
same,pIC50,second compound 10 µM,> 7.50
same,"viability, T/C",[1],54.6%
same,"viability, T/C",[2],52.6%
same,"viability, T/C",[3],37.2%
same,"viability, T/C",[4],34.6%
same,"viability, T/C",[5],25.9%
same,"viability, T/C",[6],20%
same,"viability, T/C",[7],56.3%
same,"viability, T/C",[8],37.2%
same,"viability, T/C",[9],32.2%
same,"viability, T/C",[10],38.1%
same,"viability, T/C",[11],26.3%
same,"viability, T/C",[12],20.8%
same,"viability, T/C",[13],51.2%
same,"viability, T/C",[14],38.6%
same,"viability, T/C",[15],34.9%
same,"viability, T/C",[16],39.1%
same,"viability, T/C",[17],21%
same,"viability, T/C",[18],24.6%
same,"viability, T/C",[19],48%
same,"viability, T/C",[20],33.9%
same,"viability, T/C",[21],27.6%
same,"viability, T/C",[22],26.1%
same,"viability, T/C",[23],21.9%
same,"viability, T/C",[24],18.1%
same,"viability, T/C",[25],26%
same,"viability, T/C",[26],10.1%
same,"viability, T/C",[27],9.09%
same,"viability, T/C",[28],7.85%
same,"viability, T/C",[29],10.6%
same,"viability, T/C",[30],8.93%
same,"viability, T/C",[31],16.9%
same,"viability, T/C",[32],9.99%
same,"viability, T/C",[33],10.5%
same,"viability, T/C",[34],10.1%
same,"viability, T/C",[35],8.96%
same,"viability, T/C",[36],8.05%
CC(=O)O[C@H]1C(=O)[C@@]2(C)[C@H]([C@H](OC(=O)c3ccccc3)[C@]3(O)C[C@H](OC(=O)[C@H](O)[C@@H](NC(=O)c4ccccc4)c4ccccc4)C(C)=C1C3(C)C)[C@]1(OC(C)=O)CO[C@@H]1C[C@@H]2O + CN(C)c1ccc(Nc2c3ccc(NC(=O)CCN4CCCC4)cc3nc3cc(NC(=O)CCN4CCCC4)ccc23)cc1,pIC50,second compound 0.0316 µM,6.65
same,pIC50,second compound 0.1 µM,6.66
same,pIC50,second compound 0.316 µM,6.72
same,pIC50,second compound 1 µM,7.05
same,pIC50,second compound 3.16 µM,7.03
same,pIC50,second compound 10 µM,6.68
same,"viability, T/C",[1],76.8%
same,"viability, T/C",[2],57.2%
same,"viability, T/C",[3],48.6%
same,"viability, T/C",[4],39.2%
same,"viability, T/C",[5],43.2%
same,"viability, T/C",[6],46.2%
same,"viability, T/C",[7],72.7%
same,"viability, T/C",[8],58.1%
same,"viability, T/C",[9],46.5%
same,"viability, T/C",[10],38.9%
same,"viability, T/C",[11],49.7%
same,"viability, T/C",[12],48.5%
same,"viability, T/C",[13],73.9%
same,"viability, T/C",[14],54.4%
same,"viability, T/C",[15],47%
same,"viability, T/C",[16],41.2%
same,"viability, T/C",[17],49.6%
same,"viability, T/C",[18],42%
same,"viability, T/C",[19],59.2%
same,"viability, T/C",[20],50.6%
same,"viability, T/C",[21],40.5%
same,"viability, T/C",[22],39.3%
same,"viability, T/C",[23],39%
same,"viability, T/C",[24],35.1%
same,"viability, T/C",[25],65.8%
same,"viability, T/C",[26],51%
same,"viability, T/C",[27],38.4%
same,"viability, T/C",[28],45.6%
same,"viability, T/C",[29],44.2%
same,"viability, T/C",[30],39.4%
same,"viability, T/C",[31],70%
same,"viability, T/C",[32],51.8%
same,"viability, T/C",[33],51.2%
same,"viability, T/C",[34],46.5%
same,"viability, T/C",[35],41.8%
same,"viability, T/C",[36],46.3%
CC(C)(O)C1CCC(Nc2ccc3ncc(-c4cccc(C(F)(F)F)c4)n3n2)CC1 (stereo unspecified) + CN(C)c1ccc(Nc2c3ccc(NC(=O)CCN4CCCC4)cc3nc3cc(NC(=O)CCN4CCCC4)ccc23)cc1,pIC50,second compound 0.0316 µM,6.07
same,pIC50,second compound 0.1 µM,6.04
same,pIC50,second compound 0.316 µM,5.87
same,pIC50,second compound 1 µM,5.87
same,pIC50,second compound 3.16 µM,5.97
same,pIC50,second compound 10 µM,6.17
same,"viability, T/C",[1],99.9%
same,"viability, T/C",[2],90.2%
same,"viability, T/C",[3],90.2%
same,"viability, T/C",[4],43.4%
same,"viability, T/C",[5],32.3%
same,"viability, T/C",[6],35.5%
same,"viability, T/C",[7],98.2%
same,"viability, T/C",[8],86.5%
same,"viability, T/C",[9],81.4%
same,"viability, T/C",[10],47.4%
same,"viability, T/C",[11],31.3%
same,"viability, T/C",[12],31.5%
same,"viability, T/C",[13],89%
same,"viability, T/C",[14],68.1%
same,"viability, T/C",[15],79.7%
same,"viability, T/C",[16],55%
same,"viability, T/C",[17],36.6%
same,"viability, T/C",[18],33.9%
same,"viability, T/C",[19],78.9%
same,"viability, T/C",[20],89.9%
same,"viability, T/C",[21],81.4%
same,"viability, T/C",[22],56.3%
same,"viability, T/C",[23],29.6%
same,"viability, T/C",[24],33.3%
same,"viability, T/C",[25],76.8%
same,"viability, T/C",[26],82.3%
same,"viability, T/C",[27],80.5%
same,"viability, T/C",[28],51.2%
same,"viability, T/C",[29],27.9%
same,"viability, T/C",[30],27%
same,"viability, T/C",[31],83.9%
same,"viability, T/C",[32],77.2%
same,"viability, T/C",[33],67.8%
same,"viability, T/C",[34],41.6%
same,"viability, T/C",[35],19.1%
same,"viability, T/C",[36],19.4%
